From patent US8420823B2, “Long-chain fatty acyl elongase inhibitor comprising arylsulfonyl derivative as active ingredient” (MSD K.K., priority 2008, dated 2013) come the findings set out here.

The term IC50 denotes the midpoint of a concentration-inhibition curve. The low end stands for higher potency, the high end for lower potency.

The structures appear in SMILES notation.

The assay concerns the target T1, human LCE (Homo sapiens, UniProt Q9H5J4).
T1 sequence (Q9H5J4 1-265): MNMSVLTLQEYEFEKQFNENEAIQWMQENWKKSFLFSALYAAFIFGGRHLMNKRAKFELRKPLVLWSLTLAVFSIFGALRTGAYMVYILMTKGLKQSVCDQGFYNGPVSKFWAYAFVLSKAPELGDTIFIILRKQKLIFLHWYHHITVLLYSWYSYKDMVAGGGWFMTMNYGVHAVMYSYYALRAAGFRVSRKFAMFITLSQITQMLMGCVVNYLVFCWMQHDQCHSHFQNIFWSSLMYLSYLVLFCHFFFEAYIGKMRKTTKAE
Description: LCE enzyme activity-inhibitory test. The assay is classed as biochemical. The following applies: [14C]-malonyl CoA / palmitoyl CoA substrate, 37° C., 90 minutes. The method, boiled down:
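Human LCE (100 μg/mL in enzyme solution) was incubated 90 min at 37 °C in 100 mM potassium phosphate pH 6.5 with palmitoyl CoA, malonyl CoA, [14C]-malonyl CoA, rotenone and fatty acid-free BSA. Acid-stopped, hydrolyzed products were captured on GF/C filters and counted by scintillation. Inhibition was calculated against DMSO control.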
`CC(C)Oc1ccc(NC(=O)c2cccc(S(=O)(=O)c3ccccn3)c2)c(F)c1` [Example 126, N-(2-fluoro-4-isopropoxyphenyl)-3-(pyridin-2-ylsulfonyl)benzamide] came in with an IC50 of 150 nM.

`CC(C)COc1ccc(NC(=O)c2cccc(S(=O)(=O)c3ccccn3)c2)c(F)c1` [Example 127, N-(2-fluoro-4-isobutoxyphenyl)-3-(pyridin-2-ylsulfonyl)benzamide]: half-maximal inhibition (IC50) was put at 1000 nM. The compound `CCC(C)Oc1ccc(NC(=O)c2cccc(S(=O)(=O)c3ccccn3)c2)c(F)c1` (centres unmarked) [Example 128, N-(4-sec-butoxy-2-fluorophenyl)-3-(pyridin-2-ylsulfonyl)benzamide] gave an IC50 of 190 nM. Consider `CC(C)Oc1ccc(NC(=O)c2cccc(S(=O)(=O)c3ccccn3)c2)nc1Br` [Example 129, N-(6-bromo-5-isopropoxypyridin-2-yl)-3-(pyridin-2-ylsulfonyl)benzamide], for which it took 4500 nM to reach half-maximal inhibition (IC50). As for `CC(C)Oc1ccc(NC(=O)c2cccc(S(=O)(=O)c3cccnc3)c2)cc1` [Example 130, N-(4-isopropoxyphenyl)-3-(pyridin-3-ylsulfonyl)benzamide], the figure is 1500 nM; as for `Cc1ccnc(S(=O)(=O)c2cccc(C(=O)Nc3ccc(OC(C)C)cc3)c2)c1` [Example 131, N-(4-isopropoxyphenyl)-3-[(4-methylpyridin-2-yl)sulfonyl]benzamide], 1600 nM. As for `Cc1cccc(S(=O)(=O)c2cccc(C(=O)Nc3ccc(OC(C)C)cc3)c2)n1` [Example 132, N-(4-isopropoxyphenyl)-3-[(6-methylpyridin-2-yl)sulfonyl]benzamide], the figure is 680 nM. As for `COc1ccc(NC(=O)c2cccc(S(=O)(=O)c3ccccc3)c2)cc1` [Example 133, N-(4-methoxyphenyl)-3-(phenylsulfonyl)benzamide], the figure is 3700 nM; as for `COc1ccccc1NC(=O)c1cccc(S(=O)(=O)c2ccccc2)c1` [Example 134, N-(2-methoxyphenyl)-3-(phenylsulfonyl)benzamide], 420 nM. Compound `COc1cccnc1NC(=O)c1cccc(S(=O)(=O)c2ccccc2)c1` [Example 135, N-(3-methoxypyridin-2-yl)-3-(phenylsulfonyl)benzamide] had an IC50 of 510 nM. As for `CC(C)c1ccc(NC(=O)c2cccc(S(=O)(=O)c3ccccc3)c2)cc1` [Example 136, N-(4-isopropylphenyl)-3-(phenylsulfonyl)benzamide], the figure is 160 nM; as for `CC(C)c1ccc(NC(=O)c2cccc(S(=O)(=O)c3ccc(F)cc3)c2)cc1` [Example 137, 3-[(4-fluorophenyl)sulfonyl]-N-(4-isopropylphenyl)benzamide], 690 nM.

Compound `CC(C)Oc1ccc(NC(=O)c2cccc(S(=O)(=O)c3ncccn3)c2)nc1` [Example 138, N-(5-isopropoxypyridin-2-yl)-3-(pyrimidin-2-ylsulfonyl)benzamide] yielded an IC50 of 240 nM. For the compound `CC(C)Oc1ccc(NC(=O)c2cccc(S(=O)(=O)c3ncccn3)c2)cc1` [Example 139, N-(4-isopropoxyphenyl)-3-(pyrimidin-2-ylsulfonyl)benzamide], the midpoint of inhibition, the IC50, lay at 130 nM.

As to `O=C(Nc1cc(C2CC2)n[nH]1)c1cccc(S(=O)(=O)c2ncccn2)c1` [Example 140, N-(3-cyclopropyl-1H-pyrazol-5-yl)-3-(pyrimidin-2-ylsulfonyl)benzamide], the IC50 stood at 380 nM. As for `CC(C)Oc1ccc(NC(=O)c2cccc(S(=O)(=O)c3cnccn3)c2)cc1` [Example 141, N-(4-isopropoxyphenyl)-3-(pyrazin-2-ylsulfonyl)benzamide], the figure is 1500 nM; as for `CC(C)Oc1ccc(NC(=O)c2cccc(S(=O)(=O)c3nc[nH]n3)c2)cc1` [Example 142, N-(4-isopropoxyphenyl)-3-(1H-1,2,4-triazol-3-ylsulfonyl)benzamide], 5100 nM. As for `CC(C)Oc1ccc(NC(=O)c2cccc(S(=O)(=O)c3cn[nH]c3)c2)cc1` [Example 143, N-(4-isopropoxyphenyl)-3-(1H-pyrazol-4-ylsulfonyl)benzamide], the figure is 4500 nM; as for `CC(C)Oc1ccc(NC(=O)c2cccc(S(=O)(=O)C3CCCCC3)c2)cc1` [Example 144, 3-(Cyclohexylsulfonyl)-N-(4-isopropoxyphenyl)benzamide], 74 nM. For `COc1ccccc1NC(=O)c1cccc(S(=O)(=O)C2CCCCC2)c1` [Example 145, 3-(Cyclohexylsulfonyl)-N-(2-methoxyphenyl)benzamide] the value was 210 nM; for `COc1ccc(NC(=O)c2cccc(S(=O)(=O)C3CCCCC3)c2)cc1` [Example 146, 3-(Cyclohexylsulfonyl)-N-(4-methoxyphenyl)benzamide], 1100 nM.

Compound `COc1cccnc1NC(=O)c1cccc(S(=O)(=O)C2CCCCC2)c1` [Example 147, 3-(Cyclohexylsulfonyl)-N-(3-methoxypyridin-2-yl)benzamide] yielded an IC50 of 190 nM. As for `COc1ccc(NC(=O)c2cc(S(=O)(=O)N3CCCCC3)ccc2OC)cc1` [Example 149, 2-Methoxy-N-(4-methoxyphenyl)-5-(piperidin-1-ylsulfonyl)benzamide], the figure is 1000 nM; as for `COc1ccc(S(=O)(=O)N2CCCCC2)cc1C(=O)Nc1ccc(C(C)C)cc1` [Example 150, N-(4-isopropylphenyl)-2-methoxy-5-(piperidin-1-ylsulfonyl)benzamide], 31 nM; as for `CC(C)Oc1ccc(NC(=O)c2cc(S(=O)(=O)N3CCCCC3)ccc2O)cc1` [Example 151, 2-Hydroxy-N-(4-isopropoxyphenyl)-5-(piperidin-1-ylsulfonyl)benzamide], 3600 nM. As for `CCOc1ccc(S(=O)(=O)N2CCCCC2)cc1C(=O)Nc1ccc(OC(C)C)cc1` [Example 152, 2-Ethoxy-N-(4-isopropoxyphenyl)-5-(piperidin-1-ylsulfonyl)benzamide], the figure is 180 nM; as for `CC(C)Oc1ccc(NC(=O)c2cc(S(=O)(=O)N3CCCCC3)ccc2OCCC#N)cc1` [Example 153, 2-(Cyanoethoxy)-N-(4-isopropoxyphenyl)-5-(piperidin-1-ylsulfonyl)benzamide], 420 nM; as for `CC(C)Oc1ccc(NC(=O)c2cc(S(=O)(=O)N3CCCCC3)ccc2OCC(=O)O)cc1` [Example 154, [2-{[(4-Isopropoxyphenyl)amino]carbonyl}-4-(piperidin-1-ylsulfonyl)phenoxy]acetic acid], 300 nM. For `COc1ccc(C(=O)Nc2ccc(C(C)C)cc2)cc1S(=O)(=O)N1CCCCC1` [Example 155, N-(4-isopropylphenyl)-4-methoxy-3-(piperidin-1-ylsulfonyl)benzamide] the value was 5700 nM. Consider `COc1ccc(S(=O)(=O)N2CCCCC2)cc1C(=O)Nc1ncccc1OC` [Example 156, 2-Methoxy-N-(3-methoxypyridin-2-yl)-5-(piperidin-1-ylsulfonyl)benzamide], for which half-maximal inhibition (IC50) was put at 150 nM. For `CC(C)c1ccc(NC(=O)c2cccc(S(=O)(=O)c3ccccc3)n2)cc1` [Example 157, N-(4-isopropylphenyl)-6-(phenylsulfonyl)pyridine-2-carboxamide] the value was 1400 nM.

`CC(C)c1ccc(NC(=O)c2cncc(S(=O)(=O)c3ccccc3)c2)cc1` [Example 158, N-(4-isopropylphenyl)-5-(phenylsulfonyl)nicotinamide] gave an IC50 of 3400 nM.
